# Reference: patent US20090203661A1, “Betulinic acid, derivatives and analogs thereof and uses therefor” (priority 2006, published 2009)
# Experiments:
# SK-MEL2 melanoma cells = assay: Cell proliferation (cell counting), SK-MEL2 melanoma cells; format: cell-based; conditions: Homo sapiens, SK-MEL-2, 144 h; SK-MEL2, 6 days; read-out: 6-day IC50 values for growth inhibition
# Description: (§1) Human carcinoma cell lines LNCaP (prostate) and SK-MEL2 (melanoma) were obtained from American Type Culture Collection (Manassas, Va.). Cell lines were maintained in RPMI 1640 (Sigma) supplemented with 0.22% sodium bicarbonate, 0.011% sodium pyruvate, 0.45% glucose, 0.24% HEPES, 10% FBS, and 10 mL/L of 100× Antibiotic Antimycotic solution (Sigma). Cells were maintained at 37° C. in the presence of 5% CO2.
# Prostate and melanoma cancer cells (2×10^4 per well) were plated in 12-well plates and allowed to attach for 24 hr. The medium was then changed to DMEM:Ham's F-12 medium containing 2.5% charcoal-stripped FBS and either vehicle (DMSO) or different concentrations of the compound were added. […] Each experiment was done in triplicate and results are expressed as means±SE for each set of experiments.
# LNCaP cells = assay: Western blot analysis of protein expression in LNCaP cells; format: cell-based, Human
# Description: as §1
# An equal amount of cell lysate (60 μg/well) was separated by 7.5% to 12% SDS-PAGE, which was followed by immunoblotting onto polyvinylidene difluoride (Bio-Rad, Hercules, Calif.). After blocking in TBST-Blotto (10 mmol/L Tris-HCl, 150 mmol/L NaCl (pH 8.0), 0.05% Triton X-100, 5% nonfat dry milk) for 30 min, the membranes were incubated with primary antibodies overnight at 4° C. and then with horseradish peroxidase-conjugated secondary antibody for 2 hr at room temperature. Proteins were visualized using the chemiluminescence substrate (Perkin-Elmer Life Sciences) for 1 min and exposed to Kodak X-OMAT AR autoradiography film (Eastman Kodak, Rochester, N.Y.).
# PPARγ-GAL4 chimera = PPARγ-GAL4 chimera activation (FIG. 13C); format: cell-based
# p21 promoter [1] = assay: p21 promoter luciferase transactivation in Panc-28 cells; format: cell-based, human; conditions: for transactivation, p21-luc(Fl) (−2325 to +8): Panc-28; for effect of T007 on induced p21-luc(Fl) luciferase activity: cotreatment with T007
# Description: Cells were seeded onto the 12-well plates and 0.4 μg of GAL4-Luc, 0.04 μg of β-GAL, 0.04 μg of GAL4DBD-PPARγ, and 0.4 μg of p21-luc(FL) containing −2325 to +8 insert, 0.4 μg of p21-luc (−124) containing −124 to +8 insert and 0.4 μg of p21-LUC (−60) containing −60 to +8 insert were transfected using LipofectAMINE reagent (Invitrogen) following the manufacturer's protocol. Cells were treated either with vehicle or respective compounds suspended in complete medium after 6 hr of transfection. Cell lysate is extracted after 20-22 hr by adding 100 μl of 1× reporter lysis buffer per well and 30 μl of this extract is used to quantitate the luciferase activity using Lumicount (Perkin-Elmer Life and Analytical Sciences). Each experiment is done in triplicate and the results are normalized to the β-GAL activity.
# HT-29 cells = assay: Caveolin-1 expression (Western blot) in HT-29 cells; format: cell-based, human; conditions: for caveolin-1 induction: HT-29, 72 hr; for effect of T007 on induced caveolin-1 response: HT-29, cotreatment with T007
# Description: (§2) SW480, HT-29, HCT-15 and Panc-28 (3×10^5) colon cancer cells were seeded in 6-well tissue culture plates in DMEM/Ham's F-12 medium containing 2.5% charcoal-stripped FBS. Protein is extracted from the cells treated either with vehicle or indicated compounds suspended for 24 hr except for caveolin-1 protein which was done for 72 hr. Samples were extracted in high salt buffer [50 mmol/L HEPES, 500 mmol/L NaCl, 1.5 mmol/L MgCl2, 1 mmol/L EGTA, 10% glycerol, and 1% Triton X-100 (pH 7.5), and 5 μL/mL protease inhibitor cocktail (Sigma-Aldrich)]. Samples were incubated at 100° C. for 2 min, separated on either 10% or 12% SDS-PAGE gels and then transferred to polyvinylidene difluoride membrane (PVDF; Bio-Rad, Hercules, Calif.). The PVDF membrane was blocked in 5% TBST-Blotto (10 mM Tris HCl, 150 mM NaCl, pH 8.0, 0.05% Triton X-100, and 5% nonfat dry milk) for about 30 min and was then incubated in fresh 5% TBST-Blotto with 1:1000 for caveolin-1 (Santa Cruz Biotechnology, Santa Cruz, Calif.), 1:1000 for p21 (BD Pharmingen, Frank lakes, NJ) and 1:10000 for β-actin (Sigma) primary antibody overnight with gentle shaking at 4° C. After washing with TBST for 10 min, the membrane was incubated with respective secondary antibody (1:5000) (Santa cruz, Calif.) in 5% TBST-Blotto for 3 hr. The membrane is then washed with TBST for 10 min, incubated with chemiluminiscence reagent from Perkin Elmer for one min and then exposed to Kodak X-OMAT AR autoradiography film (Eastman Kodak, Rochester, N.Y.).
# SW480 cells = assay: Caveolin-1 expression (Western blot) in SW480 cells; format: cell-based, human; conditions: SW480, 72 hr
# Description: as §2
# p21 promoter [2] = assay: Chromatin immunoprecipitation (ChIP) assay, p21 promoter, Panc-28 cells; format: cell-based, human; conditions: 5 μM, 1 or 2 hr
# Description: Panc-28 cells were treated with the different compounds as indicated for 24 hr and whole cell lysates were obtained and analyzed by immunoblots. […] Cells were transfected with the various constructs, treated with DMSO, BA, CN-BA, CN-BA-Me alone or in combination with T007, and luciferase activity determined. Results of all transactivation studies in this Figure are presented as means±SE for at least three separate determinations for each treatment group. Significant (p<0.05) induction compared to solvent (DMSO) control (*) and inhibition by cotreatment with T007 (**) are indicated. FIGS. 10D-10F show chromatin immunoprecipitation assays. Primers designed for the proximal region of the p21 promoter (FIG. 10D) were used for a ChIP assay in Panc-28 cells (FIG. 10E) treated with DMSO, 5 μM BA, 5 μM CN-BA, and 5 μM CN-BA-Me for 1 or 2 hr. Analysis of interactions of Sp1 and PPARγ with the p21 promoter were carried out in the ChIP assay as described. The ChIP assay was also used to examine binding of TFIIB to the GAPDH promoter (positive control) (FIG. 10F) and to exon 1 of CNAP1 (negative control).
# The ligand-dependent recruitment of PPARγ to the p21 promoter by CN-BA and CN-BA-Me was examined using a ChIP assay of Panc-28 cells treated with the betulinic acid, CN-BA and CN-BA-Me for 1 or 2 hr. […] This is consistent with receptor-independent activation of p21 by betulinic acid and the mechanism of this response is currently being investigated. As a control for this experiment, transcription factor TFIIb bound to the proximal region of the GAPDH gene promoter but not to exon-1 of the CNAP1 gene.
IC50 (SK-MEL2 melanoma cells),SMILES,concentrations inducing tumor suppressor gene KLF6 (LNCaP cells),treatment time at which lower expression of Sp proteins is first observed (LNCaP cells; 15 μM),lowest doses at which Sp protein degradation and PARP cleavage are observed (LNCaP cells; 48 or 72 hr),"concentration inducing downregulation of Sp1, Sp3 and Sp4 proteins (LNCaP cells; 24 hr)",concentration inducing downregulation of cyclin D1 (LNCaP cells; 24 hr exposure),activation of PPARγ-GAL4 chimera (PPARγ-GAL4 chimera),"transactivation, p21-luc(Fl) (−2325 to +8) (p21 promoter [1])",concentration giving significant induction of p21-luc(60) (p21 promoter [1]; construct lacking GC-rich sites 3 and 4),effect of T007 on induced p21-luc(Fl) luciferase activity (p21 promoter [1]),caveolin-1 induction (HT-29 cells),effect of T007 on induced caveolin-1 response (HT-29 cells),caveolin-1 induction (SW480 cells),caveolin-1 protein level (SW480 cells),Sp1 binding to p21 promoter (p21 promoter [2]),recruitment of PPARγ to proximal GC-rich region of p21 promoter (p21 promoter [2])
5 to 10 µM,"C=C(C)[C@@H]1CC[C@]2(C(=O)O)CC[C@]3(C)[C@H](CC[C@@H]4[C@@]5(C)CC[C@H](O)C(C)(C)[C@@H]5CC[C@]43C)[C@@H]12 [betulinic acid, Betulinic acid]",10 to 15 µM,12 h,1 to 2.5 µM,5 to 10 µM,≥ 10 µM,inactive,,,,,,,,,
,CC(C)C1CCC2(C(=O)O)CCC3(C)C(CCC4C5(C)C=C(C#N)C(=O)C(C)(C)C5CCC43C)C12 (stereo not shown) [CN-BA],,,,,,activates,induce transactivation,7.5 µM,inhibited,induce caveolin-1,inhibition of the induced caveolin-1 response,did not induce caveolin-1 expression,decreased expression,enhanced binding of Sp1,recruited PPARγ
,"COC(=O)C12CCC(C(C)C)C1C1CCC3C4(C)C=C(C#N)C(=O)C(C)(C)C4CCC3(C)C1(C)CC2 (stereo not shown) [CN-BA-Me, Methyl 2-cyano-lup-1-en-3-oxo-20-oate]",,,,,,,induce transactivation,,inhibited,induce caveolin-1,inhibition of the induced caveolin-1 response,did not induce caveolin-1 expression,decreased expression,enhanced binding of Sp1,recruited PPARγ
